Literature values, collected in US5500433A, “Method of treating drug abuse” (Merrell Pharmaceuticals Inc., priority 1995, dated 1996).

Key:
coronary vessels = details: patients with stable angina
thrombus formation = details: canine models
[1] = tested on: phospholipase C mediated hydrolysis of phosphoinositides; details: rabbit vascular smooth muscle cells
[2] = tested on: vascular smooth muscle cells; details: rabbit vascular smooth muscle cells
[3] = tested on: preference for alcohol and cocaine; details: rodent

SMILES | effect on coronary vessel constriction (coronary vessels) | prevention of thrombus formation (thrombus formation) | inhibition of phospholipase C mediated hydrolysis of phosphoinositides [1] | effect on PDGF induced DNA synthesis [2] | effect on preference for alcohol and cocaine [3]
O=C(c1ccc(F)cc1)C1CCN(CCn2c(=O)[nH]c3ccccc3c2=O)CC1 [Ketanserin] | blocked coronary vessel constriction | extremely effective in preventing thrombus formation | inhibited phospholipase C mediated hydrolysis of phosphoinositides | inhibited PDGF induced DNA synthesis | 
Cc1nc2sccn2c(=O)c1CCN1CCC(=C(c2ccc(F)cc2)c2ccc(F)cc2)CC1 [ritanserin] |  |  |  |  | abolished the preference for both alcohol and cocaine
NCCc1c[nH]c2ccc(O)cc12 [serotonin] | induced constriction of the coronary vessels in these patients at all concentrations tested |  |  | stimulates PDGF induced DNA synthesis | 
